Values after ≈ are worked out from the molar mass of the structure shown. Like-named read-outs stand apart in the source and are kept apart here.
Assays:
[1] = label; cited from earlier work
[2] = tested on: S. aureus; experiment: Individual fAUC24 h/MIC at the end of the dosing interval in VAD patients; conditions: last 24 h before redosing
Experimental: To use a conservative approach in suppressive therapy reflecting efficacy in the crucial phase before redosing, the AUC was calculated at the end of the dosing interval (last 24 h before redosing) [21].

[3] = cited from earlier work
[4] = in vivo
[5] = fixed in the final model, based on a previous reported value; cited from earlier work
[6] = clinical; conditions: human, in vivo, iv
[7] = human
Experimental: (§1) Sampling was routinely performed on three occasions for each patient at day 1 (30 min after the end of the infusion), day 7 (before redosing), and day 42 (before redosing). Blood samples were centrifuged (5 min, 4000 rpm) immediately after collection and aliquoted into 2 mL propylene tubes (Eppendorf, Hamburg, Germany). Aliquots were stored at −20 °C within 60 min after sample collection for a maximum of 4 weeks until assay. […] To obtain the unbound fraction, samples were prepared by solid phase extraction using a Nanosep® filter (Pall, New York, NY, USA) [18]. The limit of quantification (QL) was 12.5 mg/L for the total concentration and 1 mg/L for the unbound fraction [18].

[8] = clinical; conditions: human, serum, iv, 1500 mg; SD
Experimental: as §1

[9] = tested on: S. aureus infection isolates; experiment: MIC strips test and broth microdilution assay according to EUCAST; assay type: cell-based, Staphylococcus aureus
Experimental: The MIC was tested with the MIC strips test (Liofilchem, Roseto degli Abruzzi, Italy) and broth microdilution assay according to EUCAST standards and the manufacturer’s instructions. All patients with VAD-associated infections were included in a register study after providing informed consent. A positive vote of the ethics committee of Heidelberg University Hospital was obtained before the start of the study (S-674/2022). […] Clinical data and laboratory and microbiological results were extracted.

[10] = serum, mean ± SD
Experimental: as §1

CN[C@H]1C(=O)N[C@@H]2Cc3ccc(cc3)Oc3cc4cc(c3O[C@@H]3O[C@H](C(=O)O)[C@@H](O)[C@H](O)[C@H]3NC(=O)CCCCCCCCC(C)C)Oc3ccc(cc3Cl)[C@@H](O)[C@@H]3NC(=O)[C@H](NC(=O)[C@@H]4NC(=O)[C@@H](NC2=O)c2cc(cc(O)c2Cl)Oc2cc1ccc2O)c1ccc(O)c(c1)-c1c(O[C@H]2O[C@H](CO)[C@@H](O)[C@H](O)[C@@H]2O)cc(O)cc1[C@@H](C(=O)NCCCN(C)C)NC3=O [dalbavancin]
labeled protein binding [1]: 93% | fAUC24 h/MIC ([2]; patient 1): 141 | fAUC24 h/MIC ([2]; patient 2): 318 | fAUC24 h/MIC ([2]; patient 3, MIC not available, calculated with S. aureus breakpoint 0.25 mg/L): 26 | fAUC24 h/MIC ([2]; patient 4, MIC not available, calculated with S. aureus breakpoint 0.25 mg/L): 127 | fAUC24 h/MIC ([2]; patient 5): 110 | fAUC24 h/MIC ([2]; patient 6, MIC not available, calculated with S. aureus breakpoint 0.25 mg/L): 49 | fAUC24 h/MIC ([2]; patient 7): 165 | fAUC24 h/MIC ([2]; patient 8): 253 | fAUC24 h/MIC ([2]; patient 9): 582 | fAUC24 h/MIC ([2]; patient 10): 60 | fAUC24 h/MIC ([2]; patient 11): 311 | fAUC24 h/MIC ([2]; patient 12): 104 | fAUC24 h/MIC ([2]; patient 13): 84 | population VD ([3]; earlier population PK studies): 15.0 to 16.7 L | half-life ([3]; reported): 15.6 days | clearance (CL) ([3]; three-compartment model, ref Carrothers et al. 14): 0.053 L/h | clearance (CL) ([3]; two-compartment model, ref Buckwalter et al. 11): 0.057 L/h | clearance (CL) ([3]; two-compartment model, ref Cojutti et al. 13): 0.041 L/h | CL, bootstrap mean (CI 95%) [4]: 0.050 (0.044–0.055) L/h | V1, bootstrap mean (CI 95%) [4]: 6.42 (5.65–7.31) L | V1, central volume of distribution, estimate [4]: 6.5 L | V2, bootstrap mean (CI 95%) [4]: 14.99 (12.46–18.67) L | V2, peripheral volume of distribution, estimate [4]: 15.4 L | Q, inter-compartmental clearance [5]: 0.476 L/h | Vd [6]: 21.9 L | clearance [6]: 0.833 mL/min | observed protein binding [7]: 96-98% | level at 0.5 h [8]: 218000 ± 65900 ng/mL | level at 168 h [8]: 41100 ± 11100 ng/mL | level at 1008 h [8]: 13200 ± 9900 ng/mL | MIC ([9]; isolate of patient 1): 0.064 µg/mL (≈ 0.0352 µM) | MIC ([9]; isolate of patient 2): 0.064 µg/mL (≈ 0.0352 µM) | MIC ([9]; isolate of patient 5): 0.094 µg/mL (≈ 0.0517 µM) | MIC ([9]; isolate of patient 7): 0.047 µg/mL (≈ 0.0259 µM) | MIC ([9]; isolate of patient 8): 0.047 µg/mL (≈ 0.0259 µM) | MIC ([9]; isolate of patient 9): 0.064 µg/mL (≈ 0.0352 µM) | MIC ([9]; isolate of patient 10): 0.125 µg/mL (≈ 0.0688 µM) | MIC ([9]; isolate of patient 11): 0.064 µg/mL (≈ 0.0352 µM) | MIC ([9]; isolate of patient 12): 0.047 µg/mL (≈ 0.0259 µM) | MIC ([9]; isolate of patient 13): 0.064 µg/mL (≈ 0.0352 µM) | fcday1 (unbound concentration day 1) ([10]; end of infusion after the first dose): 6.3 ± 2.7 | fcday8 (unbound concentration day 8) ([10]; trough by the end of the first week): 1.3 ± 0.6

Reference: article PMC11591545 (Antibiotics, 2024)
